Laboratory results published in US11492325B2, “Compounds as inhibitors of sodium channels” (Human BioMolecular Research Institute, priority 2016, dated 2022).

Tests used:
[1] = Metabolism in dog hepatic S9; format: in vitro ADME; details: 0.5 mg of protein
Method: (§1) A typical incubation contained rat, mouse, dog or human liver microsomes (0.4-0.5 mg of protein), 100 mM potassium phosphate buffer (pH7.4), 50 μM test compound, an NADPH-generating system consisting of 0.5 mM NADP^+, 0.5 mM glucose-6-phosphate, 1 IU/mL glucose-6-phosphate dehydrogenase, 1 mg/mL diethylenetriaminepentaaceticacid (DETAPAC), and 3 mM MgCl2 in a final incubation volume of 0.25 mL. […] After centrifugation at 3000 rpm for 5 min, the organic fraction was collected, the solvent was removed with a stream of argon and the residue was reconstituted in 125 μL of MeOH and 125 μL H2O, mixed thoroughly, centrifuged at 13,000 rpm for 5 min and analyzed by high performance liquid chromatography. Samples were run on a Hitachi D-7000 HPLC system using a L-7100 analytical pump, L-7400 UV-Visible variable wavelength detector, and L-7600 automatic sample injector. […] Disappearance of the analyte was monitored over time. A plot of the area under the curve for the normalized analyte versus time afforded the half-life values and kapp.
(§2) Microsomes contain CYPs and FMO metabolic enzymes. S9 contains soluble enzymes (i.e., aldehyde oxidase, MAO, etc.).

[2] = Metabolism in human hepatic S9; details: 0.5 mg of protein
[3] = Metabolism in rat hepatic S9; format: in vitro ADME; details: 0.5 mg of protein
Method: as §1, §2

[4] = Metabolism in mouse hepatic S9; details: for % Metabolism Mouse S9: 0.5 mg of protein
Method: as §1, §2

[5] = biological target: T1, CYP3A4 (Homo sapiens, UniProt P08684); details: 50 min
T1 sequence (P08684 whole entry): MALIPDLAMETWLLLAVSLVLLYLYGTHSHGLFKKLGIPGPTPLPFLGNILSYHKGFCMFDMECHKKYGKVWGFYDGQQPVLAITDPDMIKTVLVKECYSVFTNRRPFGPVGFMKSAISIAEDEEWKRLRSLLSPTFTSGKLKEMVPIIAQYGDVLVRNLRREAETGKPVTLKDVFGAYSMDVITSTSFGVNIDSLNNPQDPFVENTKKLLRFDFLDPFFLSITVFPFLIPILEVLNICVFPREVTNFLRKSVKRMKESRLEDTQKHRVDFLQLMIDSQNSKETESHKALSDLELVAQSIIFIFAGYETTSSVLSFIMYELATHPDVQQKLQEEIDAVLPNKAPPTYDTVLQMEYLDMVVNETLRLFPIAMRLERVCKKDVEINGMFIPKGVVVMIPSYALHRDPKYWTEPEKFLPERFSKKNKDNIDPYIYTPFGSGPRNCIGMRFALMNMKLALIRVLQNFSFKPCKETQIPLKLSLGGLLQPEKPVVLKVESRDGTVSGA

[6] = biological target: CYP3A5 (Homo sapiens, UniProt P20815); experiment: Metabolism with highly purified CYP3A5 (HPLC); details: human, 50 min
Sequence of CYP3A5 (P20815 whole entry): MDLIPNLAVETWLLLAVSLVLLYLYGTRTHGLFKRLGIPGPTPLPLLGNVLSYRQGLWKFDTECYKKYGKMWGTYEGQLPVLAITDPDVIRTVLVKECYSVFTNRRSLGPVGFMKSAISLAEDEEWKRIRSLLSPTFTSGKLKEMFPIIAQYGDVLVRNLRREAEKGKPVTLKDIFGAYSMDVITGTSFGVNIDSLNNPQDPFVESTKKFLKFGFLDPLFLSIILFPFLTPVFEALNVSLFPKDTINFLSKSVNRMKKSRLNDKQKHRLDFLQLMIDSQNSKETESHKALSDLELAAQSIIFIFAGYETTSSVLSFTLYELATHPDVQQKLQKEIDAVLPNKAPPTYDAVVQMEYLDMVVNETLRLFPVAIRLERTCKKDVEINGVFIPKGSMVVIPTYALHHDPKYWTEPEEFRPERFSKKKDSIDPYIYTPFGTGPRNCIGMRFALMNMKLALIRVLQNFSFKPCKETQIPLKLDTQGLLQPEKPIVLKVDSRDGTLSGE
Method: as §1
(§3) Accordingly, we examined the metabolism of leads with highly purified CYPs with an HPLC method (Example 8).

[7] = biological target: CYP2D6 (Homo sapiens, UniProt P10635); experiment: Metabolism with highly purified CYP2D6 (HPLC); details: human, 50 min
Sequence of CYP2D6 (P10635 whole entry): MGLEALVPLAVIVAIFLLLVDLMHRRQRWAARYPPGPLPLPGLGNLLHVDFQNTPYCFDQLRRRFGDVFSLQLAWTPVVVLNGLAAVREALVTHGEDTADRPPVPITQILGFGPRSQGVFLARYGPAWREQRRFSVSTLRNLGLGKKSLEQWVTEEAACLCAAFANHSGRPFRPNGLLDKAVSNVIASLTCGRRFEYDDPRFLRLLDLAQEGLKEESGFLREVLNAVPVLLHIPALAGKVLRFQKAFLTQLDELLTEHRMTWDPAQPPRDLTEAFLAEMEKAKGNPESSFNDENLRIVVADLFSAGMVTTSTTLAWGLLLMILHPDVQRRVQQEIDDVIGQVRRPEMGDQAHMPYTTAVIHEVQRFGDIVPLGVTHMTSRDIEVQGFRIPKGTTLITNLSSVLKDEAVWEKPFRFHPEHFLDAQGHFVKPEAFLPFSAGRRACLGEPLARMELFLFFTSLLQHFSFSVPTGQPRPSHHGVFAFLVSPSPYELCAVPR
Method: as §1, §3

[8] = biological target: Human FMO3 (Homo sapiens, UniProt P31513); details: 15 μg enzyme/incubation; 30 mins, 37° C.; nmol metabolism/incubation
Sequence of Human FMO3 (P31513 whole entry): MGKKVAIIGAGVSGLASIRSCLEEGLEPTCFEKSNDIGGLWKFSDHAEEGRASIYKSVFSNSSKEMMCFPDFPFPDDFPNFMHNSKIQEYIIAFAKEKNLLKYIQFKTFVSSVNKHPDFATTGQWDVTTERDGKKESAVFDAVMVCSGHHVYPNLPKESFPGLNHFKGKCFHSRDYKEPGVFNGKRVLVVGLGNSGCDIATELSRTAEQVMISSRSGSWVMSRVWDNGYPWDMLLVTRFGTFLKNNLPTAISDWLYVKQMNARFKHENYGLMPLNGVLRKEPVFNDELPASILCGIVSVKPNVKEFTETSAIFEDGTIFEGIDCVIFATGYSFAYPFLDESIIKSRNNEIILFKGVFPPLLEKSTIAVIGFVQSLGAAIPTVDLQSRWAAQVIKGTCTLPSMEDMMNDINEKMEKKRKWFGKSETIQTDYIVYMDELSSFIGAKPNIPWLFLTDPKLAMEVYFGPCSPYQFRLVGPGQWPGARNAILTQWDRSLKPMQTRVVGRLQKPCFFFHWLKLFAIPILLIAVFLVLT

[9] = tested on: normal human induced pluripotent stem cell (hiPSC) cardiomyocyte; details: for WT-Prolong. Dose: 'No AP' wraps to 'No AP Prolong.'; for WT-Cess. Dose / WT-EC50 (μM)-Prolong.: deuterated vs non-deuterated; for WT-EC50 (μM)-Prolong.: 'No AP' wraps to 'No AP prolongation'
[10] = biological target: T2, Human FMO1 (Homo sapiens, UniProt Q01740); experiment: Metabolism with human FMO1 (nmol metabolism/incubation); details: 15 μg enzyme/incubation; 30 mins, 37° C.; nmol metabolism/incubation
T2 sequence (Q01740 1-532): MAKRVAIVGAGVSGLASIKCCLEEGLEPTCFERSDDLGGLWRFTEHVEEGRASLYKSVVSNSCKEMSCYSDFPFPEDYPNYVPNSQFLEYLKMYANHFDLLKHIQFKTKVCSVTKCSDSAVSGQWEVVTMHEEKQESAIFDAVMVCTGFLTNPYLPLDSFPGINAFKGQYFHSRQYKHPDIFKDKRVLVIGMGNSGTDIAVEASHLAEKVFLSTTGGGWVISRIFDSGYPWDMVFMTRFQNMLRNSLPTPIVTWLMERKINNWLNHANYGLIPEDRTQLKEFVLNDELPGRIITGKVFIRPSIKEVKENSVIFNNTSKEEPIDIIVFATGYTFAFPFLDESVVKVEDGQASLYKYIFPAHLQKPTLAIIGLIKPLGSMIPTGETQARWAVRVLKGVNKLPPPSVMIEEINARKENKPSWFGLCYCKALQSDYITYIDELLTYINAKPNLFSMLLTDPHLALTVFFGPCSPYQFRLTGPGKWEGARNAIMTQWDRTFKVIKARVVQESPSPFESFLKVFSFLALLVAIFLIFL

[11] = tested on: cardiomyocytes derived from hiPSCs from a LQTS3 patient; details: for LQT-Fold Shortening / LQT-Shortening Dose / LQT-EC50 (μM)-Shortening: 'No AP' wraps to 'No AP shortening'; for LQT-Cess. Dose: deuterated vs non-deuterated; for action potential shortening compared to unlabeled compound: deuterium-labeled analogs
[12] = biological target: T1, CYP3A4; experiment: Metabolism with highly purified CYP3A4 (HPLC); details: 3 pmol enzyme/incubation; 30 mins, 37° C.; nmol metabolism/incubation
[13] = Metabolic stability in human liver microsomes; format: in vitro ADME; details: for half-life at 50 μM: human, liver microsomes, pH 7.4, 50 μM, NADPH-generating system, 37° C., read-out: Liver Microsomes t1/2 Human
Outline: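 Liver microsomes (rat, mouse, dog or human; 0.4-0.5 mg protein) incubated with 50 μM compound in 100 mM potassium phosphate pH 7.4 with NADPH-generating system and 3 mM MgCl2. Parent loss followed by HPLC-UV; half-life and kapp from normalized peak area versus time.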

[14] = Metabolic stability in dog liver microsomes; format: in vitro ADME; details: for half-life at 50 μM: dog, liver microsomes, pH 7.4, NADPH-generating system, 37° C., read-out: Liver Microsomes t1/2 Dog
Method: as §1

[15] = Metabolic stability in rat liver microsomes; format: in vitro ADME; details: for half-life at 50 μM: rat, liver microsomes, pH 7.4, NADPH-generating system, 37° C., read-out: Liver Microsomes t1/2 Rat
Method: as §1

[16] = Metabolic stability in mouse liver microsomes; format: in vitro ADME; details: for half-life at 50 μM: mouse, liver microsomes, pH 7.4, NADPH-generating system, 37° C., read-out: Liver Microsomes t1/2 Mouse
Method: as §1

Structure (SMILES): NC(COc1cc(C(F)(F)F)cc(C(F)(F)F)c1)c1ccccc1 (stereo not drawn) [drawing 305]
- % Metabolism Dog S9 [1]: 25.6 ± 17.9%
- % Metabolism Human S9 [2]: 41.1 ± 28.9%
- % Metabolism Rat S9 [3]: 2.1 ± 1.4%
- % Metabolism Mouse S9 [4]: 11.6 ± 3.0%

Structure (SMILES): Cl.NC(COc1ccccc1C(F)(F)F)c1ccccc1 (racemic) [Compound 82, 1-phenyl-2-(2-(trifluoromethyl)phenoxy)ethan-1-amine]
- nmols metabolized, CYP3A4 [5]: 10.9 nmols
- nmols/μg CYP, CYP3A4 [5]: 0.77 nmols/μg CYP
- pmols product/μg CYP/min, CYP3A4 [5]: 15.4 pmols product/μg CYP/min
- nmols metabolized, CYP3A5 [6]: 29.9 nmols
- nmols/μg CYP, CYP3A5 [6]: 2.13 nmols/μg CYP
- pmols product/μg CYP/min, CYP3A5 [6]: 42.6 pmols product/μg CYP/min
- nmols metabolized, CYP2D6 [7]: 29.1 nmols
- nmols/μg CYP, CYP2D6 [7]: 2.18 nmols/μg CYP
- pmols product/μg CYP/min, CYP2D6 [7]: 43.6 pmols product/μg CYP/min

Structure (SMILES): Cl.[2H]C(N)(COc1cc(C)cc(C)c1)c1ccccc1 (stereo not drawn) [Compound 104b]
- Human FMO3 (nmol/incub) [8]: 0.05 nmol/incub
- WT-Prolong. Dose [9]: No AP
- WT-Cess. Dose [9]: 22 µM
- WT-EC50 (μM)-Prolong. [9]: No AP
- Human FMO1 (nmol/incub) [10]: 1.0 nmol/incub
- LQT-Fold Shortening [11]: 1.280
- LQT-Shortening Dose [11]: 2.5 µM
- LQT-Cess. Dose [11]: 22 µM
- action potential shortening compared to unlabeled compound [11]: equal to or greater action potential shortening
- Human CYP3A4 (nmol/incub) [12]: 0.3 nmol/incub

Structure (SMILES): NC(COc1ccccc1C(F)(F)F)c1ccccc1 (stereo not drawn) [drawing 308]
- % Metabolism Dog S9 [1]: 51.0 ± 19.1%
- % Metabolism Human S9 [2]: 28.0 ± 7.4%
- % Metabolism Rat S9 [3]: 15.4 ± 10.5%
- % Metabolism Mouse S9 [4]: 55.0 ± 22.4%

Structure (SMILES): Cl.[2H]C(N)(COc1ccccc1C)c1ccccc1 (stereo not drawn) [Compound 104c]
- Human FMO3 (nmol/incub) [8]: 1.3 nmol/incub
- Human FMO1 (nmol/incub) [10]: 1.4 nmol/incub
- Mouse liver S-9 (nmol/incub) ([4]; 0.4 mg protein/incubation, 30 mins, 37° C., nmol metabolism/incubation): 13.2 nmol/incub
- Human CYP3A4 (nmol/incub) [12]: 1.0 nmol/incub

Structure (SMILES): Cc1ccccc1OCC(N)c1ccccc1 (stereo not drawn) [drawing 307]
- % Metabolism Dog S9 [1]: 98.0 ± 28.1%
- % Metabolism Human S9 [2]: 7.0 ± 0.1%
- % Metabolism Rat S9 [3]: 97.8 ± 19.5%
- % Metabolism Mouse S9 [4]: 34.6%

Structure (SMILES): NC(COc1cc(C(F)(F)F)cc(C(F)(F)F)c1)c1ccccc1 (stereo not drawn) [drawing 302]
- parent after 60 min, Human liver microsomes (Stable) [13]: Stable >95% parent after 60 min
- half-life at 50 μM [14]: 1.93 h
- parent after 60 min, Rat liver microsomes (Stable) ([15]; 60 min): Stable >95% parent after 60 min
- parent after 60 min, Mouse liver microsomes (Stable) ([16]; 60 min): Stable >95% parent after 60 min

Structure (SMILES): Cc1ccccc1OCC(N)c1ccccc1 (stereo not drawn) [drawing 303]
- half-life at 50 μM [13]: 2.35 h
- half-life at 50 μM [15]: 7.92 h
- half-life at 50 μM [16]: 3.47 h

Structure (SMILES): Cc1cc(C)cc(OCC(N)c2ccccc2)c1 (stereo not drawn) [drawing 301]
- half-life at 50 μM [13]: 1.73 h
- half-life at 50 μM [14]: 3.07 h
- half-life at 50 μM [15]: 0.867 h
- half-life at 50 μM [16]: 0.983 h

Structure (SMILES): NC(COc1ccccc1C(F)(F)F)c1ccccc1 (stereo not drawn) [drawing 304]
- parent after 60 min, Human liver microsomes (Stable) [13]: Stable >95% parent after 60 min
- parent after 60 min, Dog liver microsomes (Stable) ([14]; 60 min): Stable >95% parent after 60 min
- half-life at 50 μM [15]: 3.3 h
- half-life at 50 μM [16]: 3.27 h

Structure (SMILES): Cl.[2H]C(N)(COc1ccccc1C(F)(F)F)c1ccccc1 (stereo not drawn) [Compound 104d]
- Human FMO3 (nmol/incub) [8]: 0.7 nmol/incub
- WT-Prolong. Dose [9]: No AP
- WT-Cess. Dose [9]: 22 µM
- WT-EC50 (μM)-Prolong. [9]: No AP
- Human FMO1 (nmol/incub) [10]: 0.3 nmol/incub
- LQT-EC50 (μM)-Shortening [11]: shortens)
- LQT-Fold Shortening [11]: 1.395
- LQT-Shortening Dose [11]: 22 µM
- LQT-Cess. Dose [11]: 66 µM
- Human CYP3A4 (nmol/incub) [12]: 0.3 nmol/incub

Structure (SMILES): Cc1cc(C)cc(OCC(N)c2ccccc2)c1 (stereo not drawn) [drawing 306]
- % Metabolism Dog S9 [1]: 35.8 ± 7.0%
- % Metabolism Human S9 [2]: 39.2 ± 8.4%
- % Metabolism Rat S9 [3]: 45.0 ± 14.5%
- % Metabolism Mouse S9 [4]: 13.6 ± 5.0%

Structure (SMILES): Cl.[2H]C(N)(COc1cc(C(F)(F)F)cc(C(F)(F)F)c1)c1ccccc1 (stereo not drawn) [Compound 104a]
- Human FMO3 (nmol/incub) [8]: 0.6 nmol/incub
- WT-Prolong. Dose [9]: No AP
- WT-Cess. Dose [9]: 66 µM
- WT-EC50 (μM)-Prolong. [9]: No AP
- Human FMO1 (nmol/incub) [10]: 0.8 nmol/incub
- LQT-EC50 (μM)-Shortening [11]: No AP
- LQT-Fold Shortening [11]: 1.274
- LQT-Shortening Dose [11]: 22 µM
- LQT-Cess. Dose [11]: 133 µM
- action potential shortening compared to unlabeled compound [11]: equal to or greater action potential shortening
- Human CYP3A4 (nmol/incub) [12]: 1.1 nmol/incub
